Experimental findings from a melting point compilation (Tetko et al.; mined from patent text by program, amines drawn as free bases though some values may be those of a salt) are described below.

Molecules are shown by their SMILES.

Turning to `O=C(NC1CCCCC1)c1cccc(Cn2cnc3ccccc32)c1`, the melting point (as a rule, the temperature, or range, at which the solid turns liquid) was 132 to 134 °C.
As for `Cc1cn(-c2ccc(NC(=O)c3ccc(C)c(C#Cc4ccc(NC(C)C)nn4)c3)cc2C(F)(F)F)cn1`, the figure is 141 to 143 °C; as for `Cc1cc(CCCCCCCOc2ccc(C(=O)OC(C)C)cc2)on1`, 45 to 46 °C; as for `CC(=O)OCCc1cc2c(s1)CCC1CC(=O)N(c3ccc(C)cc3)N=C21` (stereo not given), 73 to 75 °C.
To `CCc1nc2c(N)nc3c(c2n1CCCCS(=O)(=O)NC)CCCC3` belongs 166 to 170 °C; to `CCNC(NC(C)=O)C(=O)NCc1ccccc1` (stereo not given), 123 to 125 °C; to `CCCCOCCCOCCCCCCNCC(O)c1cc(Cl)c(N)c(Cl)c1` (stereo not given), 49 to 51 °C.
As for `N#Cc1c(N)ncc2c1-c1ccccc1C(c1ccc(Cl)cc1Cl)C2` (stereo not given), the figure is 282 to 284 °C; as for `CCOC(=O)CNC(=O)Cn1c(-c2cccc(Cl)c2)nc2cccnc21`, 144 to 145 °C; as for `Fc1ccc(-c2ccn(C3CN4CCC3CC4)c2-c2ccncc2)cc1` (stereo not given), 229 to 230 °C.
`O=[N+]([O-])c1ccc(-c2ncnn2-c2ccc(Br)cc2)cc1` came in with a melting point of 142 to 144 °C.
To `OC1=NN(c2cc(-c3ccnc(Nc4cccc(Cl)c4)n3)ccn2)CC1` belongs 222 to 226 °C; to `CC(C)Oc1c(C(=O)Nc2nnn[nH]2)[nH]c(Br)c1Br`, 194 to 196 °C; to `Nc1ncc(-c2ccc3nnn(Cc4ccc5ncccc5c4)c3n2)cn1`, 244 to 246 °C.
Regarding `COC(=O)Cn1c(C(=O)NC(N)=S)cc2cc(C)ccc21`, the melting point was 222 to 224 °C.
Turning to `CN(C)c1ccc(C(=N)Nc2cccc(NC(=O)C=Cc3ccccc3)c2)cc1`, the melting point was 225 to 227 °C.
To `CS(=O)(=O)c1c(C(=O)NN=Cc2ccc3ccccc3c2)[nH]c2ccccc12` belongs over 250 °C; to `N#Cc1ccc(CCNC(=O)CC(=O)O)cc1`, 137 to 139 °C; to `COc1cc2c(Nc3ccc(Sc4nccn4C)c(Cl)c3)c(C#N)cnc2cc1F`, 295 to 297 °C.
To `Cc1cccc(C=NN2CCN(C3c4ccccc4C=C(C#N)c4ccccc43)CC2)n1` (stereo not given) belongs 200 to 202 °C; to `CC(=O)N1CCCC(=O)c2ccc(Cl)cc2CCC1=O`, 154 to 156 °C; to `CC(C)(C)OCc1cccc(-c2ccc3nc(-c4cccnc4)cn3c2)c1`, 220 to 222 °C.
To `CC(=O)c1ccsc1C(=O)O` belongs 155 to 156 °C.
The molecule `Cn1c([N+](=O)[O-])cnc1-c1nnc2ccc(N=CN3CCC(O)CC3)nn12` returned a melting point of 188 to 190 °C.
For `CCC(Oc1cccc2ccccc12)C(=O)OC1CC(O)C=C2C=CC(C)C(CCC3CC(O)CC(=O)O3)C21` (stereo not given), the melting point fell in the range of 138 to 140 °C.
As for `CCCNc1nc(C#N)c(C#N)nc1SCc1ccccc1`, the figure is 153 to 156 °C; as for `Nc1ccc(-c2ccc(=O)[nH]n2)cc1Br`, 266 to 267 °C; as for `CC(Oc1ccc(-c2cccc(C(N)=O)c2)cc1)C(O)CCc1cccnc1` (stereo not given), 74 to 76 °C.
To `COc1c(Cl)cc(-c2ccc(=O)[nH]n2)cc1Cl` belongs 245 to 251 °C; to `CC(=O)Oc1ccc2c(c1)COc1c-2cc(Br)c2cc(OC(C)=O)ccc12`, 192 to 194 °C.
As for `N#Cc1ccc2c(c1)S(=O)(=O)c1ccc(F)cc1C2=O`, the figure is 260 °C; as for `O=C(CCCN1CCN(c2noc3cc(OC(=O)C45CC6CC(CC(C6)C4)C5)ccc23)CC1)c1ccc(F)cc1`, 157 to 158 °C.
For the molecule `CCOCc1nc2c(N)nc(C)c(C)c2n1CCOCCCc1cncnc1`, the melting point fell in the range of 127 to 129 °C.
As for `CCOC(=O)C(=O)Nc1cccc(F)c1O`, the figure is 168 °C; as for `COc1ccc(N2CCN(c3c(C)c(C)c4c(c3C)CC(C)(CN3CCS(=O)(=O)CC3)O4)CC2)cc1` (stereo not given), 145 to 164 °C.
